Assay results reported in US9233979B2, “Compounds that are ERK inhibitors” (Merck Sharp & Dohme Corp., priority 2012, dated 2016).
Read-outs that look alike come from different tables or passages of the source.

Target: phosphorylated active hERK2 enzyme (Homo sapiens (Human), UniProt P28482)
Experiment: Active Human ERK2 (hERK2) Activity Assay (IMAP-FP)
Type: biochemical
Details: 10 point titration, read-out: AERK2 IC50
Method in brief: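 IMAP fluorescence-polarization kinase assay: 0.5 nM activated hERK2 with 900 nM unlabeled plus 80 nM labeled peptide and 30 μM ATP, reacted 60 min. Quenched with IMAP beads in binding buffer with 24 mM NaCl; FP read after 60 min equilibration.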

[1] = Table 5, 0.5 nM hERK2, 30 μM ATP
[2] = Table 6, 0.5 nM hERK2, 30 μM ATP

Chain of phosphorylated active hERK2 enzyme (P28482 whole entry): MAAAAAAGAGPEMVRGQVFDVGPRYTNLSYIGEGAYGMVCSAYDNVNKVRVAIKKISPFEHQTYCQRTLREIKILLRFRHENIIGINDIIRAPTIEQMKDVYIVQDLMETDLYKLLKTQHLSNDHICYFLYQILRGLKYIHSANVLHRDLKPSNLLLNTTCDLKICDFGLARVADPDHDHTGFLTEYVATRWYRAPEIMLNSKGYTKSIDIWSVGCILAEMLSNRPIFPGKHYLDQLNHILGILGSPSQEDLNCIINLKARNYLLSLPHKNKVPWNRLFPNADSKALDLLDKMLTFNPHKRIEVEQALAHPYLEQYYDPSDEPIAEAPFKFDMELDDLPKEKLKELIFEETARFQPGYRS

| Compound | IC50 [1] [nM] | IC50 [2] [nM] |
| --- | --- | --- |
| C[C@@H](NC(=O)Nc1cc2[nH]nc(N[C@H]3COC[C@H]3F)c2cn1)c1ccccc1 [Example 85, 1-(3-{[(3S,4S)-4-fluorotetrahydrofuran-3-yl]amino}-1H-pyrazolo[4,3-c]-pyridin-6-yl)-3-[(1R)-1-phenylethyl]urea] |  | 0.8 |
| CCNc1n[nH]c2cc(NC(=O)N[C@H](C)c3ccccc3)nc(Cl)c12 [Example 454, 1-[4-chloro-3-(ethylamino)-1H-pyrazolo[4,3-c]pyridin-6-yl]-3-[(1R)-1-phenylethyl]urea] |  | 11.8 |
| Nc1n[nH]c2cc(NC(=O)NC3COc4ccccc4C3)ncc12 (stereo not drawn) [Example 257, 1-(3-amino-1H-pyrazolo[4,3-c]pyridin-6-yl)-3-(3,4-dihydro-2H-chromen-3-yl)urea] |  | 37.1 |
| C[C@@H](NC(=O)Nc1cc2[nH]nc(NC3COC3)c2cn1)c1ccccc1 [Example 188, 1-[3-(oxetan-3-yl-amino)-1H-pyrazolo[4,3-c]pyridin-6-yl]-3-[(1R)-1-phenylethyl]urea] |  | 146 |
| COc1ccccc1Nc1n[nH]c2cc(NC(=O)N[C@H](C)c3ccccc3)ncc12 [Example 121, 1-{3-[(2-methoxyphenyl)amino]-1H-pyrazolo[4,3-c]pyridin-6-yl}-3-[(1R)-1-phenylethyl]urea] |  | 24.5 |
| COC(=O)Nc1n[nH]c2cc(NC(=O)NC(c3ccc(Cl)c(Cl)c3)c3cnco3)ncc12 (stereo not drawn) [Example 392, methyl [6-({[(3,4-dichlorophenyl)(1,3-oxazol-5-yl)-methyl]carbamoyl}amino)-1H-pyrazolo[4,3-c]-pyridin-3-yl]-carbamate] |  | 2.6 |
| CCNc1n[nH]c2cc(NC(=O)NC(c3ccc(F)cc3)C(C)(C)O)ncc12 (stereo not drawn) [Example 429, 1-[3-(ethylamino)-1H-pyrazolo[4,3-c]pyridin-6-yl]-3-[1-(4-fluorophenyl)-2-hydroxy-2-methylpropyl]urea] |  | 1.1 |
| CC(=O)Nc1n[nH]c2c(F)c(NC(=O)N[C@H](C)c3ccccc3)ncc12 [Example 58, (R)—N-(7-Fluoro-6-(3-(1-phenylethyl)ureido)-1H-pyrazolo[4,3-c]pyridin-3-yl)acetamide] | 6.43 |  |
| O=C(Nc1cc2[nH]nc(NC(=O)N3CC(F)(F)C3)c2cn1)N[C@@H]1CCCOc2ccccc21 [Example 397, 3,3-difluoro-N-(6-{[(5R)-2,3,4,5-tetrahydro-1-benzoxepin-5-yl-carbamoyl]amino}-1H-pyrazolo[4,3-c]pyridin-3-yl)-azetidine-1-carboxamide] |  | 4.4 |
| C[C@@H](NC(=O)Nc1cc2[nH]nc(N[C@H](C)C(F)F)c2cn1)c1ccccc1 [Example 355, 1-(3-{[(1R)-2,2-difluoro-1-methyl-ethyl]amino}-1H-pyrazolo[4,3-c]-pyridin-6-yl)-3-[(1R)-1-phenylethyl]urea] |  | 2.9 |
| C[C@@H](NC(=O)Nc1cc2[nH]nc(N3CC(C(C)(C)O)C3)c2cn1)c1ccccc1 [Example 94, 1-{3-[3-(1-hydroxy-1-methylethyl)-azetidin-1-yl]-1H-pyrazolo[4,3-c]-pyridin-6-yl}-3-[(1R)-1-phenylethyl]-urea] |  | 25.4 |
| CCNc1n[nH]c2cc(NC(=O)NCc3ccccc3OC(F)F)ncc12 [Example 228, 1-[2-(difluoro-methoxy)benzyl]-3-[3-(ethylamino)-1H-pyrazolo[4,3-c]pyridin-6-yl]urea] |  | 3.5 |
| C[C@@H](NC(=O)Nc1cc2[nH]nc(Nc3ccc(F)nc3)c2cn1)c1ccccc1 [Example 382, 1-{3-[(6-fluoropyridin-3-yl)amino]-1H-pyrazolo[4,3-c]-pyridin-6-yl}-3-[(1R)-1-phenylethyl]urea] |  | 72.1 |
| C[C@@H](NC(=O)Nc1cc2[nH]nc(N3CCC4(CC3)COC4)c2cn1)c1ccccc1 [Example 89, 1-[3-(2-oxa-7-azaspiro[3.5]non-7-yl)-1H-pyrazolo[4,3-c]pyridin-6-yl]-3-[(1R)-1-phenylethyl]-urea] |  | 9.1 |
| CCNc1n[nH]c2cc(NC(=O)N[C@@H](c3ccccc3)[C@@H]3CCCO3)ncc12 [Example 148, 1-[3-(ethylamino)-1H-pyrazolo[4,3-c]pyridin-6-yl]-3-{(S)-phenyl[(2S)-tetrahydrofuran-2-yl]methyl}urea] |  | 0.8 |
| CCNc1n[nH]c2cc(NC(=O)N[C@H](c3ccccc3)[C@@H]3CCCO3)ncc12 [Example 151, 1-[3-(ethylamino)-1H-pyrazolo[4,3-c]pyridin-6-yl]-3-{(R)-phenyl[(2S)-tetrahydrofuran-2-yl]methyl}urea] |  | 315 |
| COc1nc(NC(=O)N[C@H](C)c2ccccc2)cc2[nH]nc(N)c12 [Example 452, 1-(3-amino-4-methoxy-1H-pyrazolo[4,3-c]-pyridin-6-yl)-3-[(1R)-1-phenylethyl]urea] |  | 0.7 |
| CN1C[C@@H](NC(=O)Nc2cc3[nH]nc(N)c3cn2)[C@H](c2ccccc2)C1 [Example 277, 1-(3-amino-1H-pyrazolo[4,3-c]pyridin-6-yl)-3-[(3S,4R)-1-methyl-4-phenylpyrrolidin-3-yl]urea] |  | 3.2 |

Other lines, results leading:

| IC50 [1] [nM] | IC50 [2] [nM] | Compound |
| --- | --- | --- |
| 13.8 |  | C[C@@H](NC(=O)Nc1cc2[nH]nc(N(C)C)c2cn1)c1ccccc1 [Example 19, 1-[3-(dimethylamino)-1H-pyrazolo[4,3-c]pyridin-6-yl]-3-[(1R)-1-phenylethyl]urea] |
| 0.37 |  | C[C@@H](NC(=O)Nc1cc2[nH]nc(N3CCOCC3)c2cn1)c1ccccc1 [Example 32, 1-(3-morpholin-4-yl-1H-pyrazolo[4,3-c]pyridin-6-yl)-3-[(1R)-1-phenylethyl]urea] |
|  | 0.5 | C[C@@H](O)[C@@H](NC(=O)Nc1cc2[nH]nc(N3CC4CC3CO4)c2cn1)c1ccccc1 (stereo partly drawn) [Example 111, 1-[(1S,2R)-2-hydroxy-1-phenylpropyl]-3-[3-(2-oxa-5-azabicyclo[2.2.1]-hept-5-yl)-1H-pyrazolo[4,3-c]-pyridin-6-yl]urea] |
|  | 1.6 | CC(C)(O)[C@@H](NC(=O)Nc1cc2[nH]nc(NC(=O)OC3CCOCC3)c2cn1)c1ccc(F)cc1 [Example 400, tetrahydro-2H-pyran-4-yl [6-({[(1S)-1-(4-fluorophenyl)-2-hydroxy-2-methylpropyl]-carbamoyl}amino)-1H-pyrazolo[4,3-c]pyridin-3-yl]-carbamate] |
|  | 143 | CCNc1n[nH]c2cc(NC(=O)NC(C)c3ccc(C)nc3)ncc12 (stereo not drawn) [Example 280, 1-[3-(ethylamino)-1H-pyrazolo[4,3-c]pyridin-6-yl]-3-[1-(6-methyl-pyridin-3-yl)-ethyl]urea] |
|  | 14.7 | CCNc1n[nH]c2cc(NC(=O)NCc3ccc(F)c(Cl)c3)ncc12 [Example 240, 1-(3-chloro-4-fluorobenzyl)-3-[3-(ethylamino)-1H-pyrazolo[4,3-c]-pyridin-6-yl]urea] |
|  | 12 | C[C@@H](NC(=O)Nc1cc2[nH]nc(NCC3CC(C(C)(C)O)C3)c2cn1)c1ccccc1 (stereo partly drawn) [Example 177, 1-[3-({[3-(1-hydroxy-1-methyl-ethyl)cyclobutyl]-methyl}amino)-1H-pyrazolo[4,3-c]pyridin-6-yl]-3-[(1R)-1-phenylethyl]urea] |
|  | 2.9 | CCNc1n[nH]c2cc(NC(=O)N[C@H](COC)c3ccccc3)nc(C)c12 [Example 334, 1-[3-(ethylamino)-4-methyl-1H-pyrazolo[4,3-c]-pyridin-6-yl]-3-[(1S)-2-methoxy-1-phenylethyl]urea] |
|  | 127 | CC(=O)Nc1n[nH]c2cc(NC(=O)N[C@H](C)c3ccccc3)nc(C)c12 [Example 337, (R)—N-(4-methyl-6-(3-(1-phenylethyl)ureido)-1H-pyrazolo[4,3-c]pyridin-3-yl)acetamide] |
|  | 1.4 | CSC[C@@H](NC(=O)Nc1cc2[nH]nc(N)c2cn1)c1ccccc1 [Example 357, 1-(3-amino-1H-pyrazolo[4,3-c]-pyridin-6-yl)-3-[(1S)-2-(methylsulfanyl)-1-phenylethyl]urea] |
|  | 11.8 | CCNc1n[nH]c2cc(NC(=O)NCc3cccc(F)c3)ncc12 [Example 241, 1-[3-(ethylamino)-1H-pyrazolo[4,3-c]pyridin-6-yl]-3-(3-fluorobenzyl)-urea] |
|  | 14.9 | C[C@@H](NC(=O)Nc1cc2[nH]nc(N3CC[C@@H]3C)c2cn1)c1ccccc1 [Example 90, 1-{3-[(2S)-2-methylazetidin-1-yl]-1H-pyrazolo[4,3-c]-pyridin-6-yl}-3-[(1R)-1-phenylethyl]-urea] |
|  | 13.4 | C[C@@H](NC(=O)Nc1cc2[nH]nc(N[C@H](C)c3ccccn3)c2cn1)c1ccccc1 [Example 87, 1-[(1R)-1-phenylethyl]-3-(3-{[(1R)-1-pyridin-2-ylethyl]amino}-1H-pyrazolo[4,3-c]-pyridin-6-yl)urea] |
|  | 34.6 | C[C@H](O)[C@@H](NC(=O)Nc1cc2[nH]nc(N3CCc4ncsc4C3)c2cn1)c1ccccc1 [Example 388, 1-[3-(6,7-dihydro[1,3]-thiazolo[5,4-c]pyridin-5(4H)-yl)-1H-pyrazolo[4,3-c]-pyridin-6-yl]-3-[(1S,2S)-2-hydroxy-1-phenylpropyl]urea] |
|  | 3.6 | C[C@@H](NC(=O)Nc1cc2[nH]nc(NC(=O)CC3CCCCC3)c2cn1)c1ccccc1 [Example 203, 2-cyclohexyl-N-[6-({[(1R)-1-phenylethyl]-carbamoyl}amino)-1H-pyrazolo[4,3-c]pyridin-3-yl]-acetamide] |
|  | 8.5 | COCC1CN(c2n[nH]c3cc(NC(=O)N[C@H](C)c4ccccc4)ncc23)C1 [Example 81, 1-{3-[3-(methoxy-methyl)azetidin-1-yl]-1H-pyrazolo[4,3-c]-pyridin-6-yl}-3-[(1R)-1-phenylethyl]-urea] |
|  | 94.2 | C[C@@H](NC(=O)Nc1cc2[nH]nc(Nc3ccc(F)cc3)c2cn1)c1ccccc1 [Example 116, 1-{3-[(4-fluorophenyl)-amino]-1H-pyrazolo[4,3-c]pyridin-6-yl}-3-[(1R)-1-phenylethyl]urea] |
|  | 1 | COC(=O)Nc1n[nH]c2cc(NC(=O)N[C@@H]3CN(C)C[C@H]3c3ccccc3)ncc12 [Example 291, methyl[6-({[(3S,4R)-1-methyl-4-phenyl-pyrrolidin-3-yl]carbamoyl}-amino)-1H-pyrazolo[4,3-c]pyridin-3-yl]-carbamate] |
